The values below come from patent US20100022574A1, “Methods to Treat Pain Using an Alpha-2 Adrenergic Agonist and an Endothelin Antagonist” (EndogenX, Inc., priority 2008, published 2010).

Entries after “also recorded” stand apart in the source; their conditions may differ. Structures can show the parent of a compound that is named as a salt. Where two headings read alike, the source gives them in different places.

The subject of one series is rats. The following applies: for analgesic effect of the agent alone (tail flick latency) / AUC0→360 of tail flick latency / effect on morphine analgesia in rats treated with BMS182874 / effect on oxycodone analgesia in rats treated with BMS182874: BMS182874 50 μg icv; for analgesic effect of the agent alone (tail flick latency) / AUC0→360 of tail flick latency: clonidine 1 mg/kg ip; for effect on Morphine analgesia / effect on Oxycodone analgesia: clonidine 1 mg/kg ip or BMS182874 50 μg icv; for effect on Morphine analgesia: morphine 8 mg/kg sc; for effect on Oxycodone analgesia / AUC0→360 of tail flick latency / effect on oxycodone analgesia in rats treated with BMS182874 / effect of antagonist on Clonidine potentiation of Oxycodone analgesia: oxycodone 4 mg/kg sc; for AUC0→360 of tail flick latency: each agent alone: morphine 8 mg/kg sc, Mean±S.E.M., n=6; for effect on morphine analgesia in rats treated with BMS182874: morphine 4 mg/kg sc; for effect of antagonist on Clonidine potentiation of Morphine analgesia / effect of antagonist on Clonidine potentiation of Oxycodone analgesia: idazoxan 2 mg/kg ip or yohimbine 2 mg/kg ip given 15 min before clonidine 1 mg/kg ip. (In general: Thermal pain tests record how soon the animal reacts.)

A further series relates to Male Swiss Webster mice. Kind of series: Tail-flick latency (antinociception) in mice. Particulars: for tail flick latency, fold above vehicle: clonidine 0.3 mg/ml.
A further series addresses α2-adrenergic receptors. Particulars: cited from earlier work.
In the next series the target is I1-imidazoline receptors. Particulars: cited from earlier work.
In series [1] the test system is patients after spinal fusion. Particulars: cited from earlier work.
Another series concerns goats. The following applies: epidural; cited from earlier work.
The test system of a further series is healthy volunteers. The following applies: clonidine 0.2 mg p.o., alone or with naloxone; cited from earlier work.
Series [2] concerns patients having coronary artery bypass graft surgery. Particulars: cited from earlier work.
In a further series the target is μ-opioid receptors (Homo sapiens, UniProt P35372). The following applies: relative to morphine; cited from earlier work.
Chain of μ-opioid receptors (P35372 whole entry): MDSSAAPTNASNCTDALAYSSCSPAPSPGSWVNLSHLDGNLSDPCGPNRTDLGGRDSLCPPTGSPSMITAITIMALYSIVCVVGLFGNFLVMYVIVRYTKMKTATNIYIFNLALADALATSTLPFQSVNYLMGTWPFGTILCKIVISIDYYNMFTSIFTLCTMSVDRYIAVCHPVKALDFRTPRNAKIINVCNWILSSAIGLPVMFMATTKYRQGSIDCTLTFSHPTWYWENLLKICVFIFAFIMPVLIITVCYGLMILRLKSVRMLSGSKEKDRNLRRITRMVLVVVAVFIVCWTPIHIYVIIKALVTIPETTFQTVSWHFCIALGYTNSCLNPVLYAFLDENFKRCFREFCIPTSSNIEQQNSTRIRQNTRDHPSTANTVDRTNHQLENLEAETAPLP

In the case of `Cc1noc(NS(=O)(=O)c2cccc3c(N(C)C)cccc23)c1C` [BMS182874, 5-(dimethylamino)-N-(3,4-dimethyl-5-isoxazolyl)-1-naphthalene sulfonamide], the “effect on analgesic activity of clonidine” value in the series with rats (rats, BMS182874 50 μg icv 15 min before clonidine 1.0 mg/kg ip) is listed as “did not affect”. Also, in the series on rats (rats), the “analgesic effect of the agent alone (tail flick latency)” value is recorded as “did not produce any analgesic effect”, the “effect on Morphine analgesia” value was “significantly potentiated; also recorded: Increase”, the “effect on Oxycodone analgesia” value is “potentiated; also recorded: Increase” and the “AUC0→360 of tail flick latency” value was 4.47±1.49 sec.min. Besides, the “effect on the fall in temperature induced by clonidine” value in “Body temperature in mice” (BMS182874 2.0, 10.0, 50.0 μg/kg icv, clonidine 0.3 mg/kg i.p.) is recorded as “did not affect”. The “increase in tail flick latency” value in the series on Male Swiss Webster mice (BMS182874 10 μg/kg icv + clonidine 0.3 mg/kg i.p., 1 and 2 hours post treatment, compared to vehicle of FIG. 5A) amounted to 5 fold. The “increase in tail flick latency” value in the series with Male Swiss Webster mice (BMS182874 10 μg/kg icv + clonidine 0.3 mg/kg i.p., 4 hours post treatment) is reported as “approximately 3 fold”. In the series with Male Swiss Webster mice (BMS182874 10 μg/kg icv + clonidine 0.3 mg/kg i.p., by 6 hours post treatment), the “increase in tail flick latency” value was 2 fold. Also, the “effect on clonidine analgesia” value in the series with Male Swiss Webster mice (BMS182874 low and high dose (2.0 and 50.0 μg/kg, icv), clonidine 0.3 mg/kg i.p.) is “moderately potentiated”. In the series with Male Swiss Webster mice (BMS182874 middle dose 10 μg/kg icv, clonidine 0.3 mg/kg i.p.), the “effect on the analgesic effect of clonidine” value is given as “potentiated”.

As usually defined, the Ki is a measure of affinity in units of concentration, obtained from inhibition or displacement. In the case of `Clc1cccc(Cl)c1NC1=NCCN1` [Clonidine, N-(2,6-dichlorophenyl)-4,5-dihydro-1H-imidazol-2-amine], the “effect on morphine analgesia in rats treated with BMS182874” value was “did not produce an increase in analgesic effect” in the series with rats (clonidine 0.1 mg/kg ip); “significant (P=0.016 and P=0.011, respectively) increase” with rats (clonidine 0.3 mg/kg ip); “significant (P=0.016 and P=0.011, respectively) increase” in the series on rats (clonidine 1.0 mg/kg ip). The “effect on oxycodone analgesia in rats treated with BMS182874” value in the series on rats (clonidine 0.1 mg/kg ip) was “did not produce an increase in analgesic effect”; with rats (clonidine 0.3 mg/kg ip) it was “significant (P=0.02 and P=0.031, respectively) increase”; in the series on rats (clonidine 1.0 mg/kg ip), “significant (P=0.02 and P=0.031, respectively) increase”. Further, the “analgesic effect of the agent alone (tail flick latency)” value with rats (rats) was “produced significant (P=0.00086) analgesia”. The “effect on Morphine analgesia” value with rats (rats) is “significantly potentiated; also recorded: Increase”. Besides, in the series with rats (rats), the “effect on Oxycodone analgesia” value is listed as “potentiated; also recorded: Increase”. Moreover, in the series with rats (rats), the “AUC0→360 of tail flick latency” value was 16.62±1.61 sec.min. In addition, the Ki at α2-adrenergic receptors was 3.8 nM; at I1-imidazoline receptors it was 1 nM. The “pain score (visual analog scale) after clonidine” value in [1] (clonidine 5 micrograms/kg i.v. in 1st h then 0.3 microgram/kg/h for 11 h, mean±standard error) was 26±3 mm. Further, the “change in mean arterial pressure” value in series [1] (clonidine group at T11) is −26±2%. Further, the “pain score (visual analog scale) before clonidine” value in series [1] (clonidine group, starting value, mean±standard error) is 42±5 mm. Moreover, the mean arterial pressure in series [1] (clonidine group) is recorded as 74±2 mmHg. Besides, the “morphine requirement, dose for each patient” value in series [1] (clonidine group, i.m. morphine on demand) was 3.8 ± 1 mg. Further, the duration of antinociception in the series on goats is given as 5.5 h. In addition, the “duration of increased subjective and objective pain thresholds” value with healthy volunteers is reported as “at least 4 hours”. The “effect on body temperature” value in the series “Body temperature in mice” (clonidine 0.3, 1.0, 3.0 mg/kg i.p., all doses) is listed as “decreased body temperature”. The “AUC0→240 min from tail flick latency” value in the series with Male Swiss Webster mice (Example 3, mice, morphine 4 mg/kg s.c., clonidine 2 mg/kg i.p. 30 min before morphine or vehicle, mean±SEM, N=6) came to 68.4±12.3. Moreover, the “AUC of tail flick latency compared to control mice” value with Male Swiss Webster mice (Example 5 study 2, clonidine 2 mg/kg i.p. alone, sulfisoxazole 1000 mg/kg oral alone) is “produced an increase in AUC”. For the same compound, the “increase in tail flick latency” value in the series on Male Swiss Webster mice (clonidine 0.3 mg/kg plus CMC, 2 hours post injury) is 5 fold. In the series on Male Swiss Webster mice (clonidine 0.3 mg/kg plus CMC, by 6 hours), the “tail flick latency at late time” value is on record as “decreased to approximately the level of vehicle treated animals”. Besides, the “tail flick latency, fold above vehicle” value was “approximately 3 fold” in the series with Male Swiss Webster mice (at 3 hours), 2.5 fold in the series on Male Swiss Webster mice (by 5 hours) and “up to 4 fold” in the series with Male Swiss Webster mice (immediately after injury). The “tail flick latency, fold over vehicle” value in the series with Male Swiss Webster mice (clonidine 1.0 mg/kg i.p., at approximately 6 hours) is reported as 3 fold; in the series with Male Swiss Webster mice (clonidine 1.0 mg/kg i.p., up to approximately 3 hours) it was “approximately 5 fold”; with Male Swiss Webster mice (clonidine 3.0 mg/kg i.p., all time points measured), “approximately 5 fold”. For the same compound, the “enhancement of the antinociception produced by morphine” value with Male Swiss Webster mice (clonidine 2 mg/kg i.p. + morphine 4 mg/kg s.c., AUC) is 42%.

Turning to `c1ccc2c(c1)OCC(C1=NCCN1)O2` (centres unmarked) [Idazoxan, 2-(1,4-benzodioxan-2-yl)-2-imidazoline], in the series on rats (rats), the “effect of antagonist on Clonidine potentiation of Morphine analgesia” value was “did not affect; also recorded: No effect” and the “effect of antagonist on Clonidine potentiation of Oxycodone analgesia” value is recorded as “Blocked”. Further, at α2-adrenergic receptors, the inhibition constant Ki is 3.6 nM. For the same compound, the Ki on I1-imidazoline receptors was 186 nM.

Turning to `CN1CC[C@]23c4c5ccc(O)c4O[C@H]2[C@@H](O)C=C[C@H]3[C@H]1C5.O=S(=O)(O)O` [Morphine, 7,8-didehydro-4,5α-epoxy-17-methylmorphinan-3,6α-diol sulfate], the “morphine dosage in the first 24 h [median (25th-75th percentiles)]” value in [2] (i.v. morphine group (PCA alone, control)) is 37 (30.5-51) mg; in [2] (intrathecal morphine group (4 microg/kg plus i.v. PCA morphine)) it was 40.5 (15-61.5) mg. In series [2] (i.v. morphine group), the time to extubation is 330 (300-360) min.

`COc1ccc2c3c1O[C@H]1C(=O)CC[C@@]4(O)[C@@H](C2)N(C)CC[C@]314.Cl` [Oxycodone, 4,5α-epoxy-14-hydroxy-3-methoxy-17-methylmorphinan-6-one hydrochloride]: in the series on rats (rats), the “AUC0→360 of tail flick latency” value was determined as 18.23±2.32 sec.min. Moreover, the “affinity to the μ-opioid receptors, times less than morphine” value on μ-opioid receptors is given as above 20 times.

Turning to `COC(=O)[C@@H]1[C@H]2C[C@H]3c4[nH]c5ccccc5c4CCN3C[C@@H]2CC[C@@H]1O` [Yohimbine, 17α-hydroxy-yohimban-16α-carboxylate hydrochloride], in the series with rats (rats, hydrochloride), the “effect of antagonist on Clonidine potentiation of Morphine analgesia” value is reported as “Blocked” and the “effect of antagonist on Clonidine potentiation of Oxycodone analgesia” value is listed as “Blocked”. For the same compound, the Ki at α2-adrenergic receptors is 22 nM. Moreover, the inhibition constant Ki on I1-imidazoline receptors is 21800 nM.

Consider `N=C(N)NC(=O)Cc1c(Cl)cccc1Cl` [guanfacine], for which, in the series on goats, the duration of antinociception was 8 h.
